According to patent EP0702683B1, “06-SUBSTITUTED GUANINE DERIVATIVES, A PROCESS FOR THEIR PREPARATION AND THEIR USE IN TREATING TUMOUR CELLS” (Cancer Research Technology Limited, priority 1993, dated 1994):
pIC50: −log10 of the molar value. Where two headings read alike, the source gives them in different places. Each block holds one compound with its values, some of them ahead of it.

What was measured:
[1] = biological target: T1, ATase (Homo sapiens, UniProt P16455); assay: In vitro ATase inactivation assay with purified recombinant human ATase; assay type: biochemical; parameters: made in house; conditions: for ability to inactivate recombinant human ATase: up to the highest concentration used, in words; for effectiveness in the in vitro ATase inactivation assay compared with BeG: Figure 1, in words
T1 sequence (P16455 1-207): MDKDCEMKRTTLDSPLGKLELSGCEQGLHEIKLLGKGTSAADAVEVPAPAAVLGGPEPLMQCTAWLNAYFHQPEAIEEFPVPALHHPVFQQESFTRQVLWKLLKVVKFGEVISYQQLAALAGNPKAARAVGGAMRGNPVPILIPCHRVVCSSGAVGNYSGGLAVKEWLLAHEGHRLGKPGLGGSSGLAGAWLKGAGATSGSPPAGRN
Protocol: The cDNA cloning and overexpression of the human ATase has been reported previously^23. Purification of the recombinant proteins was achieved either by affinity chromatography through a DNA-cellulose column as described by Wilkinson et al.,^25, 26, or by DEAE-cellulose ion-exchange chromatography. For the latter, the ATase protein was partially purified by ammonium sulphate precipitation (30 - 60%) and dialysed against 10 mM Tris-HCl pH 7.5, 1 mM DTT, 2 mM EDTA, 10% glycerol, before loading on a DEAF-cellulose column. The ATase was then eluted with a 0-0.1 M NaCl gradient.
Compounds to be tested were dissolved in DMSO to a final concentration of 10 mM and diluted just before use in buffer I containing 1 mg/ml bovine serum albumin (IBSA). Recombinant ATase was diluted in IBSA and titrated in order that the reaction be conducted under ATase, and not substrate, limiting conditions. In each assay, fixed amounts of ATase (60-75 fmol) were incubated with varying amounts of 0^6-benzylguanine, or test compound in a total volume of 200 µl of IBSA containing 10 µg of calf thymus DNA at 37°C for 1 hour. The [^3H]-methylated-DNA substrate (100 µl containing 6.7 µg of DNA and 100 fmol of 0^6-methylguanine) was added and incubation continued at 37° for 1 hour, until the reaction was completed. Following acid hydrolysis of the DNA as previously described^21 the [^3H]-methylated protein was recovered and quantitated by liquid scintillation counting. Samples were typically assayed in duplicate and experiments repeated several times. I50 is the concentration of inactivator required to produce a 50% reduction in ATase activity.

[2] = Stability of inactivators at 37°C (spectrophotometric half life); assay type: physicochemical
Protocol: Inactivators (10mM in DMSO) were diluted to 0.1mM in prewarmed degassed buffer I (1mM EDTA, 50mM Tris pH 8.3) or PBS (pH 7-7.2). […] Samples were immediately transferred to a CARY13 spectrophotometer (cuvette block held at 37°C) and scanned at an appropriate wavelength (according to the spectral properties of the compound) at 3-10 minute intervals for up to 80 hours. The results were expressed as percentage absorbance change versus time and T1/2 values (half life) extrapolated from this.

[3] = biological target: T1, ATase; assay: Inactivation of ATase activity in Raji cells; assay type: cell-based; parameters: endogenous in cells; host or cells: Raji; conditions: Raji cells, 2 hours at 37°C; read-out: Raji I50
Protocol: Mammalian cells were cultured under standard conditions. For example, Raji (a human lymphoblastoid cell line from a Burkitt's lymphoma) cells were grown in suspension culture in RPMI medium supplemented with 10% horse serum. A375M cells are human melanoma cells from which the xenografts described below were established following subcutaneous injection into nude mice: WiDr cells are a human colon carcinoma cell line: Hamster+120 cells are a mitozolomide-selected subline of a Chinese hamster lung fibroblast V79 cell line called RJKO: Yoshida cells are a rat carcinosarcoma cell line and YRbus is a busulphan resistant subline thereof: XP cells are an SV40-transformed fibroblast cell line originally from the skin of a Xeroderma pigmentosum patient, pHMGhAT2b cells are a clone of these cells that have been transfected with a mammalian cell expression vector containing the human ATase cDNA and pHMGla cells are a clone that have been transfected with the expression vector only (i.e. one not containing the human ATase cDNA). Cell pellets were resuspended in cold (4°C) buffer I containing 2 µg/ml leupeptin and sonicated for 10 seconds at 12 µ peak to peak distance. After cooling in ice, the cells were sonicated for a further 10 seconds at 18 µ. Immediately after sonication, 0.01 volumes of 8.7 mg/ml phenylmethanesulphonylfluoride in ethanol was added and the sonicates centrifuged at 15 000 g for 10 minutes at 4°C to pellet cell debris. The supernatant was kept for determination of ATase activity (see below).
Cells were diluted to 10^6/ml in culture medium containing either the appropriate concentration of inactivator or an equivalent volume of vehicle (DMSO). Following incubation at 37°C for 2 hours the cells were harvested by centrifugation, washed twice with PBS and the resulting cell pellets (between 1-2 x 10^7 per pellet) stored at -20°C.

[4] = test system: Raji cells; assay: Sensitization of Raji cells to BCNU (XTT assay); assay type: cell-based, human; conditions: BCNU, 2 hour pretreatment; for Raji sensitization (D90.^C/D90.^I) 0.5µM: inactivator 0.5µM; for Raji sensitization (D90.^C/D90.^I) 1.0µM: inactivator 1.0µM; for Raji sensitization (D90.^C/D90.^I) O.1µM: inactivator O.1µM
Protocol: Following a 2 hour incubation at 37°C, medium containing either increasing doses of BCNU, temozolomide or equivalent vehicle was added and the cells allowed to grow for 6 days. At this time XTT solution was added and the cells incubated for a further 4 hours at 37°C. The resulting red/orange formazan reaction product was quantified by measuring absorption at 450nm on a microtitre platereader.

[5] = test system: A375M cells; assay: Sensitization of A375M cells to BCNU (MTT assay); assay type: cell-based, human; conditions: for A375M sensitization (D50.^C/D50.^I) 0.5uM: inactivator 0.5uM 2 hours before; for A375M sensitization (D50.^C/D50.^I) 5.0uM: inactivator 5.0uM 2 hours before; for A375M sensitization (D50.^C/D50.^I) 1.0uM: inactivator 1.0uM 2 hours before
Protocol: Sensitization of A375M cells to the cytotoxic effects of BCNU was analysed by MTT assay ^24 differing from the XTT assay described above as follows. […] After 6 days MTT solution (4mg/ml) was added and cells incubated for 3 hours at 37°C. Medium was aspirated and the resulting purple formazan crystals were solubilised in DMSO (120μl) and cell viability was quantified by measuring absorption at 540nm using a microtitre plate reader.

[6] = 0.1mM in PBS (pH 7-7.2), read-out: T1/2(h) in PBS (converted)
[7] = 0.1mM in buffer I (1mM EDTA, 50mM Tris pH 8.3), read-out: T1/2(h) in Buffer I (converted)

Compound: CC(Oc1nc(N)nc2[nH]cnc12)c1ccccc1 (racemic) [B.4214, DL-O^6-(α -methylbenzyl)guanine, reference compound]
pIC50 [1]: < 4.22
ability to inactivate recombinant human ATase [1]: did not inactivate ATase up to the highest concentration used

Compound: CC(Oc1nc(N)nc2[nH]cnc12)c1cccs1 (racemic) [B.4217, DL-O^6-(α -methylthenyl)guanine]
pIC50 [1]: < 3.30
ability to inactivate recombinant human ATase [1]: did not inactivate ATase up to the highest concentration used

Compound: CC(Oc1nc(N)nc2[nH]cnc12)c1ccsc1 (racemic) [B.4219, DL-O^6-[1-(3-thienyl)ethyl]guanine]
half-life at 100 µM [2, 6]: 0.12 h
pIC50 [3]: < 6.00
Raji sensitization (D90.^C/D90.^I) 0.5µM [4]: 1.0
Raji sensitization (D90.^C/D90.^I) 1.0µM [4]: 1.0
Raji sensitization (D90.^C/D90.^I) O.1µM [4]: 1.0
pIC50 [1]: 4.07

Compound: Nc1nc(OCc2ccsc2)c2nc[nH]c2n1 [B.4206, O^6-(3-thienylmethyl)guanine]
half-life at 100 µM [2, 6]: > 16 h
half-life at 100 µM [2, 7]: > 80 h
pIC50 [3]: 7.22
Raji sensitization (D90.^C/D90.^I) 1.0µM [4]: 6.0
Raji sensitization (D90.^C/D90.^I) O.1µM [4]: 1.6
pIC50 [1]: 7.52
effectiveness in the in vitro ATase inactivation assay compared with BeG [1]: somewhat more effective than BeG
A375M sensitization (D50.^C/D50.^I) 0.5uM [5]: 3.3
A375M sensitization (D50.^C/D50.^I) 5.0uM [5]: 4.6

Compound: Nc1nc(OCc2ccoc2)c2nc[nH]c2n1 [B.4209, O^6-(3-furylmethyl)guanine]
half-life at 100 µM [2, 6]: > 16 h
pIC50 [3]: 6.82
Raji sensitization (D90.^C/D90.^I) 0.5µM [4]: 1.4
Raji sensitization (D90.^C/D90.^I) 1.0µM [4]: 2.8
Raji sensitization (D90.^C/D90.^I) O.1µM [4]: 1.5
pIC50 [1]: 6.82
A375M sensitization (D50.^C/D50.^I) 1.0uM [5]: 2.5

half-life at 100 µM [2, 6]: > 16 h
Compound: Nc1nc(OCc2ccccn2)c2nc[nH]c2n1 [B.4210, O^6-(2-picolyl)guanine]
A375M sensitization (D50.^C/D50.^I) 1.0uM [5]: 1.5

Compound: Nc1nc(OCc2cccnc2)c2[nH]cnc2n1 [B.4211, O^6-(3-picolyl)guanine]
half-life at 100 µM [2, 6]: > 16 h
pIC50 [1]: 6.37

Compound: Nc1nc(OCc2ccc3c(c2)OCO3)c2nc[nH]c2n1 [B.4212, O^6-piperonylguanine]
half-life at 100 µM [2, 6]: 0.72 h
half-life at 100 µM [2, 7]: 1.3 h
pIC50 [3]: 7.30
Raji sensitization (D90.^C/D90.^I) 1.0µM [4]: 10.7
Raji sensitization (D90.^C/D90.^I) O.1µM [4]: 2.7
pIC50 [1]: 7.70
effectiveness in the in vitro ATase inactivation assay compared with BeG [1]: considerably better
A375M sensitization (D50.^C/D50.^I) 0.5uM [5]: 2.3
A375M sensitization (D50.^C/D50.^I) 5.0uM [5]: 2.5

Compound: Nc1nc(OCc2ccc3ccccc3c2)c2nc[nH]c2n1 [B.4213, O^6-(2-naphthylmethyl)guanine]
half-life at 100 µM [2, 6]: > 16 h
pIC50 [3]: 7.52
Raji sensitization (D90.^C/D90.^I) 0.5µM [4]: 2.1
Raji sensitization (D90.^C/D90.^I) 1.0µM [4]: 2.9
Raji sensitization (D90.^C/D90.^I) O.1µM [4]: 1.2
pIC50 [1]: 6.82
A375M sensitization (D50.^C/D50.^I) 1.0uM [5]: 2.0

Compound: Cc1ccccc1COc1nc(N)nc2[nH]cnc12 [B.4218, O^6-(2-methylbenzyl)guanine, reference compound]
pIC50 [1]: 4.24

Compound: Cc1ccc(COc2nc(N)nc3[nH]cnc23)s1 [B.4220, O^6-(5-methylthenyl)guanine]
half-life at 100 µM [2, 6]: > 16 h
pIC50 [3]: < 6.00
Raji sensitization (D90.^C/D90.^I) 0.5µM [4]: 1.0
Raji sensitization (D90.^C/D90.^I) 1.0µM [4]: 1.0
Raji sensitization (D90.^C/D90.^I) O.1µM [4]: 1.0
pIC50 [1]: 5.05
A375M sensitization (D50.^C/D50.^I) 1.0uM [5]: 1.3

Compound: Cc1ccc(COc2nc(N)nc3[nH]cnc23)o1 [B.4221, O^6-(5-methylfurfuryl)guanine]
half-life at 100 µM [2, 6]: > 16 h
pIC50 [3]: < 6.00
Raji sensitization (D90.^C/D90.^I) 0.5µM [4]: 1.0
Raji sensitization (D90.^C/D90.^I) 1.0µM [4]: 1.0
Raji sensitization (D90.^C/D90.^I) O.1µM [4]: 1.0
pIC50 [1]: 5.00
A375M sensitization (D50.^C/D50.^I) 1.0uM [5]: 1.0

Compound: Nc1nc(OCc2cccc3ccccc23)c2nc[nH]c2n1 [B.4265, O^6-(1-naphthylmethyl)guanine]
half-life at 100 µM [2, 7]: 60 h
pIC50 [1]: 4.02

Compound: Nc1nc(OCc2cc3ccccc3o2)c2nc[nH]c2n1 [B.4266, O^6-(2-benzofuranylmethyl)guanine]
half-life at 100 µM [2, 6]: > 16 h
pIC50 [1]: 7.46
A375M sensitization (D50.^C/D50.^I) 0.5uM [5]: 6.3
A375M sensitization (D50.^C/D50.^I) 5.0uM [5]: 6.3

Compound: Nc1nc(OCc2ccc3c(c2)OCO3)c2ncn([C@@H]3O[C@H](CO)[C@@H](O)[C@H]3O)c2n1 [B.4268, O^6-piperonylguanosine]
half-life at 100 µM [2, 6]: 8 h
pIC50 [1]: 6.12

Compound: Nc1nc(OCc2ccc(Br)s2)c2nc[nH]c2n1 [B.4269, O^6-(5-bromothenyl)guanine]
pIC50 [3]: 8.22
pIC50 [1]: 8.35

Compound: Nc1nc(OCc2cnc3c(c2)OCO3)c2nc[nH]c2n1 [B.4271, O^6-(5-azapiperonyl)guanine]
half-life at 100 µM [2, 6]: > 16 h
pIC50 [1]: 6.64

Compound: N#Cc1ccc(COc2nc(N)nc3[nH]cnc23)o1 [B.4273, O^6-(5-cyanofurfuryl)guanine]
pIC50 [1]: 8.22

Compound: Nc1nc(OCc2cnco2)c2nc[nH]c2n1 [B.4274, O^6-(5-oxazolylmethyl)guanine]
pIC50 [1]: 6.47

Compound: Nc1nc(OCc2cncs2)c2nc[nH]c2n1 [B.4275, O^6-(5-thiazolylmethyl)guanine]
pIC50 [1]: 7.48

Compound: Nc1nc(OCc2cc3ccccc3s2)c2ncn([C@@H]3O[C@H](CO)[C@@H](O)[C@H]3O)c2n1 [B.4276, O^6-(2-benzo[b]thienylmethyl)guanosine]
pIC50 [1]: 6.46

Compound: Nc1nc(OCc2ccncc2)c2nc[nH]c2n1 [B.4277, O^6-(4-picolyl)guanine]
pIC50 [1]: 6.89

Compound: Cn1cc([N+](=O)[O-])cc1COc1nc(N)nc2[nH]cnc12 [B.4278, O^6(1-methyl-4-nitropyrrol-2-ylmethyl) guanine]
pIC50 [1]: 6.26

Compound: Nc1nc(OCc2cccs2)c2ncn([C@@H]3O[C@H](CO)[C@@H](O)[C@H]3O)c2n1 [B.4279, O^6-thenylguanosine]
pIC50 [1]: 6.05

Compound: C=CCOc1nc(N)nc2[nH]cnc12 [O^6-allylguanine, reference compound]
half-life at 100 µM [2, 7]: > 64 h
pIC50 [1]: 4.66
A375M sensitization (D50.^C/D50.^I) 0.5uM [5]: 1.3
A375M sensitization (D50.^C/D50.^I) 5.0uM [5]: 1.9

pIC50 ([1]; recombinant human ATase incubated with inactivator 1 hour at 37°C before substrate, read-out: I50): 4.22
Compound: O^6-(2-methoxybenzyl)guanine [B.4231, reference compound]
